# Results taken from article PMC12156041, “Design, Synthesis and Antiplasmodial Activities of a Library of Fluorine-Based 3-Benzylmenadiones” (Molecules, 2025).
# Several values for one entry are separate records, joined by “and”; a condition that tells them apart may be missing. Equal entries are not always repeated. Where two headings read alike, the source gives them in different places.
# Experiments:
# [1] = system: rat myoblast cell line (L6 cells); details: cited from earlier work
# [2] = system: P. falciparum NF54 strain; details: cited from earlier work
# [3] = Thermodynamic aqueous solubility (shake-flask, PBS-10% DMSO); type: physicochemical; details: PBS with 10% DMSO, aqueous with cosolvent or surfactant or cyclodextrin, PBS pH 7.4, 10% DMSO, 20 °C, read-out: Thermodynamic aq. Solubility in PBS-10% DMSO
# Description: Thermodynamic Aqueous Solubility: The shake-flask method enabled us to determine the apparent thermodynamic solubilities of the DMSO stock solutions of the compounds. […] The mixture was equilibrated at 20 °C for 24 h. After centrifugation, the supernatant was injected into an HPLC column coupled to an LC-MS apparatus (with UV–Vis detection) in order to determine the compound concentration. […] These solutions were also injected in order to calibrate the concentration determination process. […] Measurements were performed in duplicate.
# [4] = Chromatographic Hydrophobicity Index (CHI) by HPLC; type: physicochemical; details: for CHI: Chromatographic Hydrophobicity Index, lipophilicity index; for chromatographic logD: pH 7.4, read-out: log D7.4
# Description: Determination of CHI values: Compound lipophilicity influences permeability and propensity to nonspecific binding to plasma proteins. Although precise, the classical “shake flask” method is not always appropriate for the determination of high hydrophobicity, which can be alternatively measured using the Chromatographic Hydrophobicity Index method. This HPLC-based technique leads to rapid and cheap estimates of partition coefficients. […] A measure of 5 μL was injected onto the HPLC (with UV–Vis detection). […] The measurements were performed in duplicate. […] The CHI is approximately equal to the proportion of acetonitrile in the mobile phase when the compound is eluted from the column.
# [5] = system: P. berghei (GFP ANKA malaria strain); assay: In vitro efficacy testing with P. berghei, 24 h (species shift assay); type: cell-based
# [6] = system: P. falciparum NF54 strain; assay: P. falciparum NF54 [3H]hypoxanthine incorporation assay, 72 h, 0.5% Albumax; type: cell-based
# [7] = system: P. falciparum NF54 strain; assay: P. falciparum NF54 24 h assay (species shift assay); type: cell-based
# [8] = system: P. berghei GFP ANKA malaria strain; assay: Drug assay in vivo in P. berghei-infected mice; details: p.o. 4 × 50 mg/kg; for Parasitized RBC over 100: individual mice; for Parasitized RBC over 100 / Parasitized RBC over 100, Avg. / % of Control / Activity (%): day 4; for % of Control: parasitemia; for Activity (%): reduction of parasitemia versus control
# [9] = system: P. falciparum NF54 strain; assay: Serum shift assay, P. falciparum NF54 72 h in 50% human serum; details: for Serum Shift: 50% human serum versus 0.5% Albumax; for IC50: read-out: IC50 NF54 72 h, 50% Human Serum
# P. falciparum strain Dd2 = system: P. falciparum strain Dd2; design: method as in doi:10.1002/ejoc.201600144; details: multi-resistant P. falciparum strain Dd2 ref 12; cited from earlier work
# [10] = Plasmodium berghei, read-out: IC50 Pb, P. berghei, 24 h assay
# [11] = Plasmodium falciparum, NF54, 72 h, read-out: IC50 NF54 72 h, 0.5% Albumax, Table 5B, 0.5% Albumax
# [12] = Plasmodium falciparum, NF54, 72 h, read-out: IC50 Pf NF54, 72 h, Table 5A, species shift experiment
# [13] = Plasmodium falciparum, NF54, as stated in text, read-out: IC50 against P. falciparum NF54
# [14] = Plasmodium falciparum, NF54, read-out: IC50 Pf NF54, 24 h assay
# [15] = Plasmodium falciparum, NF54, 72 h
SMILES,Tox/L6 ([1]; grey line ref 9),IC50 ([2]; grey line ref 9),solubility thermodynamic at 24 h [3],CHI [4],chromatographic logD [4],"IC50 [5, 10]","IC50 [6, 11]","IC50 [6, 12]","IC50 [6, 13]","IC50 [7, 14]",Parasitized RBC over 100 ([8]; 50 mg/kg),Avg. Mouse Survival [8],"Parasitized RBC over 100, Avg. [8]",% of Control [8],Serum Shift [9],"IC50 [9, 15]",also measured
COc1ccc(OC)c(CC2=C(C)C(=O)c3ccccc3C2=O)c1 [A-b-26],158.5 µM,67 nM,0.59 ± 0.01 µM,107,4.26,–,–,–,–,–,–,–,–,–,–,–,–
CC1=C(Cc2c(F)c(F)c(F)c(F)c2F)C(=O)c2ccccc2C1=O [A-b-47],161.0 µM,60 nM,0.33 ± 0.01 µM,115,4.67,265 nM,81 nM,91 nM,< 100 nM,184 nM,65.4 and 62.4 and 72.5,4.0 days,66.77,113.36%,4.0,324 nM,Activity (%) [8]: −13.36%
CC1=C(Cc2ccc(C(F)(F)F)cc2)C(=O)c2cc(F)ccc2C1=O [Cpnd 6-F-PD],44.7 µM,181 nM,0.06 ± 0.01 µM,117,4.75,170 nM,93 nM,120 nM,–,104 nM,28.2 and 35.8 and 27.8,7.0 days,30.60,51.95%,0.9,80 nM,"Activity (%) ([8]; 50 mg/kg): 48.05%; Activity (%) ([8]; listed as 6-fluoro–plasmodione, 50 mg/kg): 50%; IC50 (P. falciparum strain Dd2): 59 ± 11 nM"
CC1=C(Cc2ccc(OC(F)(F)F)cc2)C(=O)c2ccccc2C1=O [A-b-3],–,–,–,–,–,–,–,–,–,–,–,–,–,–,–,473 nM,"IC50 ([5]; Plasmodium berghei, 24 h, read-out: IC50 Pb, 24 h): 191 nM; IC50 [6, 15]: 83 nM; IC50 ([6]; Plasmodium falciparum, NF54, 72 h, read-out: IC50 NF54 72 h, 0.5% Albumax): 83 nM; IC50 ([6]; Plasmodium falciparum, NF54, 72 h, read-out: IC50 Pf NF54, 72 h): 83 nM; IC50 ([6]; Plasmodium falciparum, NF54, read-out: IC50 against P. falciparum NF54): < 100 nM; IC50 ([7]; Plasmodium falciparum, NF54, 24 h, read-out: IC50 Pf NF54, 24 h): 223 nM"
COc1ccc(CC2=C(C)C(=O)c3ccccc3C2=O)cc1 [A-b-16],–,–,1.07 ± 0.02 µM,106,4.22,–,–,–,–,–,–,–,–,–,–,–,–
COc1cc(CC2=C(C)C(=O)c3ccccc3C2=O)cc(OC)c1 [B-b-35],70.3 µM,52 nM,0.75 ± 0.14 µM,107,4.27,–,–,–,< 100 nM,–,–,–,–,–,–,–,–
"CCN(CC)CCCC(C)Nc1ccnc2cc(Cl)ccc12 (stereo not drawn) [CQ, reference compound]",–,–,–,–,–,–,–,–,–,–,–,–,–,–,–,–,"IC50 ([5]; read-out: IC50 Pb, 24 h, P. berghei, 24 h assay): 16 nM; IC50 ([6]; read-out: IC50 NF54 72 h, 0.5% Albumax, Table 5B, 0.5% Albumax): 5 nM; IC50 ([6]; read-out: IC50 Pf NF54, 72 h, Table 5A, species shift experiment): 11 nM; IC50 ([7]; read-out: IC50 Pf NF54, 24 h, 24 h assay): 4.9 nM; IC50 [9]: 6.6 nM"
CC1=C(Cc2ccc(C(F)(F)F)cc2)C(=O)c2ccc(F)cc2C1=O [Cpnd 7-F-PD],–,–,0.59 ± 0.01 µM,–,–,138 nM,89 nM,93 nM,–,157 nM,64.7 and 69.0 and 62.2,4.0 days,65.30,110.87%,4.2,377 nM,Activity (%) [8]: −10.87%
"CC1=C(Cc2ccc(F)c(C(F)(F)F)c2)C(=O)c2ccccc2C1=O [A-b-9, 4′-fluoro-3′-trifluoromethyl-benzylmenadione]",–,–,0.67 ± 0.01 µM,–,–,149 nM,59 nM,62 nM,< 100 nM,143 nM,70.3 and 49.1 and 52.4,4.0 days,57.27,97.23%,6.1,355 nM,"IC50 ([6]; Plasmodium falciparum, NF54, 72 h, P. falciparum NF54, 72 h, read-out: IC50): 77 nM; Activity (%) [8]: 2.77%"
CC1=C(Cc2ccc(C#N)cc2)C(=O)c2ccccc2C1=O [A-b-10],–,–,0.82 ± 0.01 µM,97,3.75,–,–,–,> 200 nM,–,–,–,–,–,–,–,Tox/L6 ([1]; grey line ref 8): 112.5 µM; IC50 ([2]; grey line ref 8): 374 nM
"C[C@H]1[C@H](OC(=O)CCC(=O)O)O[C@@H]2O[C@@]3(C)CC[C@H]4[C@H](C)CC[C@@H]1[C@@]24OO3 [AS, artesunate, reference compound]",–,–,–,–,–,13 nM,–,4.8 nM,–,–,–,–,–,–,–,1 nM,–
